Experimental data: ChEMBL document CHEMBL5291721, “A preclinical secondary pharmacology resource illuminates target-adverse drug reaction associations of marketed drugs” (Nat Commun, 2023)

Columns and labels:
[1] = biological target: T1, Muscarinic acetylcholine receptor M1 (Homo sapiens, UniProt P11229); type: functional, cell-based
T1 sequence (P11229 whole entry): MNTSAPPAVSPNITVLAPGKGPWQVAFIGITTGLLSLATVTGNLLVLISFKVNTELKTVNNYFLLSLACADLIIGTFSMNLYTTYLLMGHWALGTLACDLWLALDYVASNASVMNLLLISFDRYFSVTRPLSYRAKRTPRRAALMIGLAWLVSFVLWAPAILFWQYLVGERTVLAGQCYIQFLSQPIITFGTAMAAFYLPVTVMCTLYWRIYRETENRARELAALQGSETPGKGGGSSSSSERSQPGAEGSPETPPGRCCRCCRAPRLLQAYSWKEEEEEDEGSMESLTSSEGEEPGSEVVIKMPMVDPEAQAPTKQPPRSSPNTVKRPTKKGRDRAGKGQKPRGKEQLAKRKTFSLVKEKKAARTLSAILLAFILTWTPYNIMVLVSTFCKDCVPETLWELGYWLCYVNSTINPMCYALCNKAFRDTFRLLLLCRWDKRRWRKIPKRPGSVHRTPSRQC

[2] = biological target: D(3) dopamine receptor (Homo sapiens, UniProt P35462)
[3] = biological target: T2, 5-hydroxytryptamine receptor 1A (Homo sapiens, UniProt P08908)
T2 sequence (P08908 whole entry): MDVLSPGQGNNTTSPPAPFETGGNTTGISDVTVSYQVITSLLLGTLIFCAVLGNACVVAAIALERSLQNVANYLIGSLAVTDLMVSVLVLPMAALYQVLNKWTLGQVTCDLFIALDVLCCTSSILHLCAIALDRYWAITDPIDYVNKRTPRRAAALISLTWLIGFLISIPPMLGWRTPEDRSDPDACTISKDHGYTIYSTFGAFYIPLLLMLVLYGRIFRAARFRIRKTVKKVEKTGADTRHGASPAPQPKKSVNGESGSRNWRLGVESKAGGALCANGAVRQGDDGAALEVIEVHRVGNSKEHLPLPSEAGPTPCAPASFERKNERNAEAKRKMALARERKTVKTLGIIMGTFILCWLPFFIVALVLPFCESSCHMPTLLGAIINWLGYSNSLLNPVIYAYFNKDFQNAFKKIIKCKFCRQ

[4] = biological target: Histamine H2 receptor (Homo sapiens, UniProt P25021); type: functional, cell-based
[5] = biological target: Sodium-dependent noradrenaline transporter (Homo sapiens, UniProt P23975)
[6] = biological target: Sodium-dependent dopamine transporter (Homo sapiens, UniProt Q01959)
[7] = biological target: Prostaglandin G/H synthase 1 (Homo sapiens, UniProt P23219); type: functional
[8] = biological target: Acetylcholinesterase (Homo sapiens, UniProt P22303); type: functional
[9] = biological target: T2, 5-hydroxytryptamine receptor 1A; type: functional, cell-based
[10] = biological target: T3, Progesterone receptor (Homo sapiens, UniProt P06401); type: functional
T3 sequence (P06401 whole entry): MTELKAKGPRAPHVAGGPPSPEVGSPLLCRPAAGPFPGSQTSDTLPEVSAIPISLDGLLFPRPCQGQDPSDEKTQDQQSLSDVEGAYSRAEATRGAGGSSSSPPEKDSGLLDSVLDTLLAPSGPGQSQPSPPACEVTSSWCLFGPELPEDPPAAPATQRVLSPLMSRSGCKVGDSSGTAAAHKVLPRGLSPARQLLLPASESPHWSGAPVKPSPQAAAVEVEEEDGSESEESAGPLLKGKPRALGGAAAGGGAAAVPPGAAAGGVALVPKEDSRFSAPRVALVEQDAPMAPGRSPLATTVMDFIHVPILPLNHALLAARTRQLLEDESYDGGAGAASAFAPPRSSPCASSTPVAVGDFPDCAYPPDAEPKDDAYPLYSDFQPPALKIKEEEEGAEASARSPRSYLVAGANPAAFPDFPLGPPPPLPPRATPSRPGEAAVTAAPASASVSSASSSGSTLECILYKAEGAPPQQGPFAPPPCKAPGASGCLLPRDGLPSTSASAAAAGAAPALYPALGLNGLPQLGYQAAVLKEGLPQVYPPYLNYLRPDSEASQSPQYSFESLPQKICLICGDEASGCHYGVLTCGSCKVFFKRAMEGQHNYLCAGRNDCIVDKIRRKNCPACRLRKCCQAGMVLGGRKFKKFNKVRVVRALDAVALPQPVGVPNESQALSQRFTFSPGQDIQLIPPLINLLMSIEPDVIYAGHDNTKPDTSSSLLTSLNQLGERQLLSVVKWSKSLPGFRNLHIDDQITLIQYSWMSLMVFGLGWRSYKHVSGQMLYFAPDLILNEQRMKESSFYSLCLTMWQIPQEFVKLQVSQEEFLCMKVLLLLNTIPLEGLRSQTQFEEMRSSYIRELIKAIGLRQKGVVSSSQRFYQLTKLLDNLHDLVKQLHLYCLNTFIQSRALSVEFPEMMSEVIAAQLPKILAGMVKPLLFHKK

[11] = biological target: T4, Gastrin/cholecystokinin type B receptor (Homo sapiens, UniProt P32239)
T4 sequence (P32239 whole entry): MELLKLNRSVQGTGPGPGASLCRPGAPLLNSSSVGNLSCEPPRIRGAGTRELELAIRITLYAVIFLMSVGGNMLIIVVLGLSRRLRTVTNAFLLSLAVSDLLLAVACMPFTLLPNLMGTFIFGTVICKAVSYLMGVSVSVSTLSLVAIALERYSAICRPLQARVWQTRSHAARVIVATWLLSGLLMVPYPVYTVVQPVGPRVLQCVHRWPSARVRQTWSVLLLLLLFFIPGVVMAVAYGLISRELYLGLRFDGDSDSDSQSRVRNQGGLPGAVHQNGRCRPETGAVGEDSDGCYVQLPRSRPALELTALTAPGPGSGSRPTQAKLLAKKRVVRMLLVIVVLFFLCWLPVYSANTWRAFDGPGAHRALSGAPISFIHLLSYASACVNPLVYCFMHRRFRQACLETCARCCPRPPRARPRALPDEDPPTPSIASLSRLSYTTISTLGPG

[12] = biological target: T3, Progesterone receptor; type: functional; remark: listed apart in the source
[13] = biological target: Sodium-dependent serotonin transporter (Homo sapiens, UniProt P31645)
[14] = biological target: Beta-2 adrenergic receptor (Homo sapiens, UniProt P07550)
[15] = biological target: Melanocortin receptor 4 (Homo sapiens, UniProt P32245)
[16] = biological target: Mu-type opioid receptor (Homo sapiens, UniProt P35372)
Further: assay procedure not described here.

Histamine H2 receptor, sequence (P25021 whole entry): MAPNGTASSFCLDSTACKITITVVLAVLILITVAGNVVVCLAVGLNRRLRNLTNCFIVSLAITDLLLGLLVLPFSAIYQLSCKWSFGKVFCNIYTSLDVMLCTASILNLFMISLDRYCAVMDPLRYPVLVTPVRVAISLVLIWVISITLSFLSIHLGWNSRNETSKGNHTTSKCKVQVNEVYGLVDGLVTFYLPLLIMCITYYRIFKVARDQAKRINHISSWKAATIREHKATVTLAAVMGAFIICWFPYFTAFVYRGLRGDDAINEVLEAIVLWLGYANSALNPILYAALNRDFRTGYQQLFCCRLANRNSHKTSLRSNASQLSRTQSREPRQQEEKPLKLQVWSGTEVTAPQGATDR
Sodium-dependent dopamine transporter, sequence (Q01959 whole entry): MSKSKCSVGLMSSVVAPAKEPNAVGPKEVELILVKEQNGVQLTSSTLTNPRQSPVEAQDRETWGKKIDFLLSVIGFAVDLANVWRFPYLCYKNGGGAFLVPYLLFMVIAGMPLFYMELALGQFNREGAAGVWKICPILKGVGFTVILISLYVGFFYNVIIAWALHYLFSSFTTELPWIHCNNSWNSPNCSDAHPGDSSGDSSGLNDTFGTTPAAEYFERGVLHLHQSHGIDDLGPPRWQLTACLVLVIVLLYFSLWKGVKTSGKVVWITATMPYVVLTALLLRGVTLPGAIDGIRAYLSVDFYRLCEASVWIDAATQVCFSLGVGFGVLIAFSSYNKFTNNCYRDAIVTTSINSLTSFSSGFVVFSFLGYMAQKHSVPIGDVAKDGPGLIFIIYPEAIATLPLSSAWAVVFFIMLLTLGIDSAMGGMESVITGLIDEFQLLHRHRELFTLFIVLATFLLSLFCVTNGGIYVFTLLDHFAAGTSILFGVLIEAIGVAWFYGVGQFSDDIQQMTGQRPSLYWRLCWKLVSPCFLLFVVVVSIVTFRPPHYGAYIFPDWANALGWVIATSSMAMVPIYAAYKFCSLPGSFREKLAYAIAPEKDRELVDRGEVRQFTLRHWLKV
Prostaglandin G/H synthase 1, sequence (P23219 whole entry): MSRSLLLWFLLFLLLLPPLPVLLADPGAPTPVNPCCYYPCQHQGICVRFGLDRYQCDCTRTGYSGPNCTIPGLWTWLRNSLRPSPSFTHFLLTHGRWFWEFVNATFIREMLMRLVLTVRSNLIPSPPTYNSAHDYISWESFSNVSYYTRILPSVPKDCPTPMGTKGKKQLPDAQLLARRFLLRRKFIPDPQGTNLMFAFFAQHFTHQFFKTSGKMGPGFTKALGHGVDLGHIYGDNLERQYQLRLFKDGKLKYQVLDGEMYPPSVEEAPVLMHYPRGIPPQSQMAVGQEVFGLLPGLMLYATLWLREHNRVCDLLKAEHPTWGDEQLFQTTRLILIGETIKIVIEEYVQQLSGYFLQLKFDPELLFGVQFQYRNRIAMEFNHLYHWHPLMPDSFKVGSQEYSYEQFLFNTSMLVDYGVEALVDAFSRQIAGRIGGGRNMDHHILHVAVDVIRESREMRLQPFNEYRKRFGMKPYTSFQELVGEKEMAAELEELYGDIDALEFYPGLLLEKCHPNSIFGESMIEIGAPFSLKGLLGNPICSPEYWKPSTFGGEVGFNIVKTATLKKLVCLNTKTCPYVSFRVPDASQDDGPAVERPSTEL
D(3) dopamine receptor, sequence (P35462 whole entry): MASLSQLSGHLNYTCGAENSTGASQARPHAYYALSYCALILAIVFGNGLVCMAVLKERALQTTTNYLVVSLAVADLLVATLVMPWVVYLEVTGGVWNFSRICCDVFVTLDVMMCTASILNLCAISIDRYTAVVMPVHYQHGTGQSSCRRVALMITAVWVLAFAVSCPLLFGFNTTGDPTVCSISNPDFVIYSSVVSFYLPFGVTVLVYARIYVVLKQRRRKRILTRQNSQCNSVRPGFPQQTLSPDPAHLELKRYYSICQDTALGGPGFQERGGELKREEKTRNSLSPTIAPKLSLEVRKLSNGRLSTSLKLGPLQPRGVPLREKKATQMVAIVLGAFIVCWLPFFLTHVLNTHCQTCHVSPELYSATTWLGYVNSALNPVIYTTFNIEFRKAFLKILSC
Acetylcholinesterase, sequence (P22303 whole entry): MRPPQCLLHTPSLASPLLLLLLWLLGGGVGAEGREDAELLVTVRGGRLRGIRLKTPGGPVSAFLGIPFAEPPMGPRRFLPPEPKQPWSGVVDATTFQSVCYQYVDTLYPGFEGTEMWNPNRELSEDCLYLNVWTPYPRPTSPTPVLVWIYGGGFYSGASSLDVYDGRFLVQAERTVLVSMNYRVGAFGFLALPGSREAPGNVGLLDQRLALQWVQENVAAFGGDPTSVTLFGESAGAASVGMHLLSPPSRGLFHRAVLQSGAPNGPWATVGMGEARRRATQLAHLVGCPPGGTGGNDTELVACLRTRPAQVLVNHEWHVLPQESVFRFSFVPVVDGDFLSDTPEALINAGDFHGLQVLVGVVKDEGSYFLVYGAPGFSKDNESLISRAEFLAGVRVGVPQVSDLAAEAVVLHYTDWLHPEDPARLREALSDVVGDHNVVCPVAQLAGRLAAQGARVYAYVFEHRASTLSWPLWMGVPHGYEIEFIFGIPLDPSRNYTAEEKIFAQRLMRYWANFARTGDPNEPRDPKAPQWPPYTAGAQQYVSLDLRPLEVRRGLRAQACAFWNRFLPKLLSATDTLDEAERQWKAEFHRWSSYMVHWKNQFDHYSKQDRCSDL
Sodium-dependent serotonin transporter, sequence (P31645 whole entry): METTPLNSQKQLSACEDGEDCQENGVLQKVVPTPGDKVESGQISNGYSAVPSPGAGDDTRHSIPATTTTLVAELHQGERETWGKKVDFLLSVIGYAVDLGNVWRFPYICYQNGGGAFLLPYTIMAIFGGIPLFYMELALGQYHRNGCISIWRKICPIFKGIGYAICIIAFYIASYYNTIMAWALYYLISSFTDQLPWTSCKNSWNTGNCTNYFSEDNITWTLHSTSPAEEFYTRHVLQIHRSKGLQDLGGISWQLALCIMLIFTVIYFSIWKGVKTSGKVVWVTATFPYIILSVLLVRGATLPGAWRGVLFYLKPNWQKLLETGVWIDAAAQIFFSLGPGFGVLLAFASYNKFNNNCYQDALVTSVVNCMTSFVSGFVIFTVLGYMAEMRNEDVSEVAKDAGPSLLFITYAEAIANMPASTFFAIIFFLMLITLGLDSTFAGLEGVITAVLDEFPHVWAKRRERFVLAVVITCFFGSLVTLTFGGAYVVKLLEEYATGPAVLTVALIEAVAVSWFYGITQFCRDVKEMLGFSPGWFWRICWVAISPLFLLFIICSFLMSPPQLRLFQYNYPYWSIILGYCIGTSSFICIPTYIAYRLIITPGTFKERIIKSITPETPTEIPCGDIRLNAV
Sodium-dependent noradrenaline transporter, sequence (P23975 whole entry): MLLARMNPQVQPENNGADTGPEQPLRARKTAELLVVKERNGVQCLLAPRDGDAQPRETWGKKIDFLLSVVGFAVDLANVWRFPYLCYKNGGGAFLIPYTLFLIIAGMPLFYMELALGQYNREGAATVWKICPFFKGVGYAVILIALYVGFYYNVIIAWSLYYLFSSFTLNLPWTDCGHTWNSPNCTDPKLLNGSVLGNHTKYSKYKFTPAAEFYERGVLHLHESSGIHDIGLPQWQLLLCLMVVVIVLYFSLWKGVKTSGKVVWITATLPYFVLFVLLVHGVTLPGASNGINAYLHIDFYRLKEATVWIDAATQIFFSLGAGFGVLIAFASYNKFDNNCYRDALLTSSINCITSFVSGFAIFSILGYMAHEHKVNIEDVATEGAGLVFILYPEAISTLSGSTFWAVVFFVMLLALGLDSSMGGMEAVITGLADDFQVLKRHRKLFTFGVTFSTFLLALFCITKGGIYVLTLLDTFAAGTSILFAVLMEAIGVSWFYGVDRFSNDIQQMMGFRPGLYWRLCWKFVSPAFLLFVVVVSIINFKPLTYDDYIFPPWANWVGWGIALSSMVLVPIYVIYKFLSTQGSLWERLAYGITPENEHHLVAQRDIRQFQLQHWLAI
Beta-2 adrenergic receptor, sequence (P07550 whole entry): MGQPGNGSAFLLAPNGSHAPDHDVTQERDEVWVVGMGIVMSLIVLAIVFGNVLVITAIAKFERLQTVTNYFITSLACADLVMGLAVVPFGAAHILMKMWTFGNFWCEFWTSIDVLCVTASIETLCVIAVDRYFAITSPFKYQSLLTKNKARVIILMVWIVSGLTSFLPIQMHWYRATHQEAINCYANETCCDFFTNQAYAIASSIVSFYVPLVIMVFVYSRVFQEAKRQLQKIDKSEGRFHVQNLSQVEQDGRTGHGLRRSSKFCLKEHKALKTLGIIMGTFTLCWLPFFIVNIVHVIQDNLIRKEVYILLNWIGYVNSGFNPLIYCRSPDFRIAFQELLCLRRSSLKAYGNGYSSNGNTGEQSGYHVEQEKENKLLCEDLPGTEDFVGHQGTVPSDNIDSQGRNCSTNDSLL
Mu-type opioid receptor, sequence (P35372 whole entry): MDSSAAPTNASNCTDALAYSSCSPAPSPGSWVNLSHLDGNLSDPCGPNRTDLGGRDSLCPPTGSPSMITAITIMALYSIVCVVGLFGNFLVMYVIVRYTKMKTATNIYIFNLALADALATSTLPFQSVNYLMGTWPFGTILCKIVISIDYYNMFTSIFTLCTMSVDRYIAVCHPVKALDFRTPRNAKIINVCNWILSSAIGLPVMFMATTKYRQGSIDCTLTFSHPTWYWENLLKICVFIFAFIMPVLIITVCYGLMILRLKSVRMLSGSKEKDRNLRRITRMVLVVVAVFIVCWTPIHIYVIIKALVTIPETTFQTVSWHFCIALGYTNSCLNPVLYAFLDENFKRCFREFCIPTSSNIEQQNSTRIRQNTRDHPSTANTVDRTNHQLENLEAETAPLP
Melanocortin receptor 4, sequence (P32245 whole entry): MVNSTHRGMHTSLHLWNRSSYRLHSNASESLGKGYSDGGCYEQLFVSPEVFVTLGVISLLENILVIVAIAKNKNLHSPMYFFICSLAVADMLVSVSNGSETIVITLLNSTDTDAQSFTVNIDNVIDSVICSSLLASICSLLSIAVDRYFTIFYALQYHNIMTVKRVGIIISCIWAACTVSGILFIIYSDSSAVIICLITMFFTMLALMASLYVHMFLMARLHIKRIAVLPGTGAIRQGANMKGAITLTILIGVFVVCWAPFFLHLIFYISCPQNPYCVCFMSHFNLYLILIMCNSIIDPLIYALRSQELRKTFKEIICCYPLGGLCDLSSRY

SMILES | AC50 [1] | AC50 [2] | AC50 [3] | AC50 [4] | AC50 [5] | AC50 [6] | AC50 [7] | AC50 [8] | AC50 [9] | AC50 [10] | AC50 [11] | AC50 [12] | AC50 [13] | AC50 [14] | AC50 [15] | AC50 [16]
O=C(Cc1ccc(-c2ccccc2)cc1)Nc1ccccn1 [DIFENPIRAMIDE] | > 10 µM | > 30 µM | > 30 µM | > 30 µM | 2.16 µM | 0.58 µM | > 30 µM | > 30 µM | – | – | – | – | – | – | – | –
C=CCc1ccccc1OCC(O)CNC(C)C (stereo not drawn) [ALPRENOLOL] | > 0.3 µM | > 0.3 µM | 0.0146 µM | > 30 µM | > 0.3 µM | > 0.3 µM | > 0.3 µM | > 0.3 µM | 4.8 µM | > 30 µM | > 30 µM | > 30 µM | 11.5 µM | – | – | –
CC[C@H]1[C@@H](O)[C@@H]2[C@H](CC[C@]3(C)[C@@H]([C@H](C)CCC(=O)O)CC[C@@H]23)[C@@]2(C)CC[C@@H](O)C[C@@H]12 [OBETICHOLIC ACID] | > 30 µM | > 30 µM | > 30 µM | > 30 µM | > 30 µM | > 30 µM | > 30 µM | > 30 µM | – | > 30 µM | > 30 µM | > 30 µM | > 30 µM | > 30 µM | – | –
CC1(C)NC(=O)N(c2ccc([N+](=O)[O-])c(C(F)(F)F)c2)C1=O [NILUTAMIDE] | > 3 µM | > 30 µM | > 30 µM | > 30 µM | > 30 µM | > 30 µM | > 30 µM | > 30 µM | > 30 µM | > 30 µM | > 30 µM | > 30 µM | > 30 µM | > 30 µM | > 30 µM | –
O=C(O)c1cc(O)ccc1O [GENTISIC ACID] | > 30 µM | > 30 µM | > 30 µM | – | > 30 µM | > 30 µM | > 30 µM | > 30 µM | – | – | – | – | – | – | – | –
CC(C)Nc1ncccn1 [ISAXONINE] | > 30 µM | > 30 µM | > 30 µM | – | > 30 µM | > 30 µM | > 30 µM | > 30 µM | – | – | – | – | – | – | – | –
COCCCN1CCC(NC(=O)c2cc(Cl)c(N)c3c2OCC3)CC1 [PRUCALOPRIDE] | > 30 µM | > 30 µM | 6.1 µM | – | > 30 µM | > 30 µM | 23.6 µM | 26.7 µM | > 30 µM | > 30 µM | – | > 30 µM | > 30 µM | – | – | > 30 µM
CN(C)CCN1C(=O)c2ccccc2N(C)c2ccccc21 [DIBENZEPIN] | > 30 µM | 16.3 µM | 0.306 µM | – | 0.212 µM | > 30 µM | > 30 µM | > 30 µM | – | – | – | – | – | – | – | –
CCOC(=O)[C@H](CCc1ccccc1)N[C@@H](C)C(=O)N1[C@H](C(=O)O)C[C@H]2CCCC[C@@H]21 [TRANDOLAPRIL] | > 30 µM | > 30 µM | > 30 µM | – | > 30 µM | > 30 µM | > 30 µM | > 30 µM | – | – | – | – | – | – | – | –
C=C[C@H]1C[N@@]2CC[C@H]1C[C@H]2[C@H](O)c1ccnc2ccc(OC)cc12 [QUININE] | > 30 µM | > 30 µM | > 30 µM | – | > 30 µM | > 30 µM | > 10 µM | > 30 µM | – | – | – | – | – | – | – | –
N[C@@H](C(=O)N[C@@H]1C(=O)N2C(C(=O)O)=C(Cl)CC[C@H]12)c1ccccc1 [LORACARBEF ANHYDROUS] | > 30 µM | > 30 µM | > 30 µM | – | > 30 µM | > 30 µM | > 30 µM | > 30 µM | – | – | – | – | – | – | – | –
Cc1cc(C#N)cc(C)c1Oc1nc(Nc2ccc(C#N)cc2)nc(N)c1Br [ETRAVIRINE] | 2.71 µM | > 30 µM | > 30 µM | – | 5.88 µM | > 10 µM | 20.4 µM | > 30 µM | – | – | – | – | – | – | – | –
COC(c1ccccc1)(c1ccccc1)[C@H](Oc1nc(C)cc(C)n1)C(=O)O [AMBRISENTAN] | > 30 µM | > 30 µM | > 30 µM | – | > 30 µM | > 30 µM | > 30 µM | > 30 µM | – | – | – | – | – | – | – | –
O=C(OCC(O)CO)c1ccccc1Nc1ccnc2cc(Cl)ccc12 (stereo not drawn) [GLAFENINE] | 7.51 µM | > 30 µM | > 30 µM | – | 17 µM | > 30 µM | > 30 µM | > 30 µM | > 30 µM | > 30 µM | – | > 30 µM | > 30 µM | – | – | > 30 µM
CN(C)CCn1nnnc1SCC1=C(C(=O)O)N2C(=O)[C@@H](NC(=O)Cc3csc(N)n3)[C@H]2SC1 [CEFOTIAM] | > 30 µM | > 30 µM | > 30 µM | – | > 30 µM | > 30 µM | > 30 µM | > 30 µM | – | – | – | – | – | – | – | –
CC(C)(C)NC[C@H](O)COc1ccccc1C1CCCC1 [PENBUTOLOL] | 13.5 µM | 7.74 µM | 0.0036 µM | – | 13.4 µM | > 30 µM | 21.1 µM | > 30 µM | – | – | – | – | – | – | – | –
